In patent US20240091267A1, “PRE-TREATMENT OF MSC WITH PPARB/DELTA AGONIST FOR TREATMENT OF ISCHEMIA-REPERFUSION INJURY” (Universite de Montpellier, priority 2020, published 2024):
Read-outs that look alike come from different tables or passages of the source.

Tests used:
H9c2 cardiomyocytes = assay: Transwell co-culture of MSC with H9c2 exposed to H2O2, specific DNA fragmentation in H9c2; type: cell-based, rattus norvegicus; conditions: vs naive MSC
Experimental: FIG. 7: Increased anti-apoptotic effects of PPARβ/δ-primed MSC on cardiomyocytes. (A) After 24 hours of MSC pharmacological preconditioning using PPARβ/δ agonist, cells were co-cultured using transwells (upper chamber) with H9c2 (lower chamber). Both cultures were exposed to 4 hours of 350 μM of H2O2 in minimal medium (serum deprivation). At the end of the protocol, specific DNA fragmentation was quantified in H9c2 cells and values were compared with those obtained for co-cultures with naive MSC or MSC pre-treated with PPARβ/δ antagonists (GSK0660 or GSK03787) and exposed to 350 H2O2μM (B, C, D) Scatter dot plot and bars were presented for specific DNA fragmentation quantified in H9c2 at the end of the protocols. Data (mean±SD for each group of treatment) were normalized by values obtained with naive MSC/H2O2 and compared using Kruskal-Wallis (Dunn's post hoc test). (B): data were obtained using the condition 1 protocol. (C): the condition 2 protocol P was followed and p value was noted **** for p<0.0001 (MSC, n=16 independent cultures vs MSC/H2O2, n=18). For the data obtained with condition 3 protocol (D), p value was noted * for p=0.0436 (MSC+1 μM GSK0660/H2O2, n=6 vs MSC/H2O2, n=10).
H9c2, rattus norvegicus cardiomyocytes, were cultured in Dulbecco's modified Eagle's medium (DMEM), supplemented with 10% fetal bovine serum (FBS), 100 Units/mL penicillin, and 100 μg/mL streptomycin. To induce apoptosis, H9c2 were cultured in a minimal medium (without FBS) containing 350 μM of H2O2 during 4 hours. In order to evaluate the effect of MSCs on cardiomyocytes, a co-culture assay was designed using the transwell system to avoid cell-cell contact. 15,000 cardiomyocytes (lower part) were plated per well of a 12-well dish with or 15,000 MSC (upper part) in presence of 350 OA of H2O2. Two different protocols of co-culture were performed. In protocol 1, H9c2 and co-cultured MSC were exposed to H2O2(with serum deprivation). In protocol 2, H9c2 were exposed to H2O2 in minimal medium during 4 hours and after a wash, cells were co-cultured in complete medium with MSC. In protocol 3, H9c2 were cultured in presence of H2O2 during 4 hours in regular medium deprived in serum, which was continued for an extra 1 hour. Then the co-culture of H9c2 with MSC was performed in complete medium for 1 hour. At the end of all protocols, H9c2 were recovered for apoptosis and RT-qPCR analysis.
DNA fragmentation was quantified in vitro on cell lysates with an enzyme-linked immunosorbent assay kit (Cell Death ELISA; Roche Diagnostics) designed to measure of histone-complexed DNA fragments (mono- and oligonucleosomes) out of the cytoplasm of cells after the induction of apoptosis.
To determine the role of PPARβ/δ on MSC-induced protective effect on cardiomyocytes we designed and developed three protocols in order to mimic the stress received by MSC when transplanted into infarcted tissues. The first protocol consisted in co-culturing naive or primed MSC with H9c2 exposed to 350 μM of H2O2 for 4 hours using transwell. The second protocol consisted in exposing […] μM of H2O2 for 4 hours before to co-culture them with naive or primed MSC in a complete medium. The third protocol consisted in exposing H9c2 to 350 μM of H2O2 for 4 hours followed by serum deprivation for 1 hour before to co-culture them with naive or primed MSC in a complete medium (FIG. 7A).

[1] = tested on: isolated perfused hearts from C57B16 mice; assay: Ex vivo Langendorff ischemia-reperfusion, infarct size, effect of preconditioning duration (Example 3); design: species or system mouse (C57BL/6); conditions: 4.10^5 cells/heart; for Decrease in infarct size: vs IR
[2] = 3 mg/kg/day, mice; cited from earlier work
[3] = 3 mg/kg/day, rats; cited from earlier work
[4] = tested on: cardiomyoblast cell line H9c2; conditions: H9c2 cardiomyoblasts; cited from earlier work

| Structure (SMILES) | Specific DNA fragmentation in H9c2 (anti-apoptotic effect of MSC) (H9c2 cardiomyocytes; protocol 1: MSC pretreated 24 h with 1 μM, co-cultured with H9c2 under 350 μM H2O2 4 h) | Specific DNA fragmentation in H9c2 (anti-apoptotic effect of MSC) (H9c2 cardiomyocytes; protocol 2: H9c2 exposed to 350 μM H2O2 4 h, then co-culture in complete medium with MSC pretreated with 1 μM) | Specific DNA fragmentation in H9c2 (anti-apoptotic effect of MSC) (H9c2 cardiomyocytes; protocol 3: H9c2 350 μM H2O2 4 h, serum deprivation 1 h, then co-culture in complete medium with MSC pretreated with 1 μM) | Infarct size, mean value ([1]; MSC preconditioned 24 h (1-day) with 0.1 μM, n=7) | Decrease in infarct size ([1]; MSC preconditioned 24 h with 0.1 μM) [%] | Decrease in infarct size ([1]; MSC preconditioned 4 days (96 h) with 0.1 μM) [%] | Infarct size, mean value ([1]; MSC preconditioned 4 days with 0.1 μM, n=8) [%] | Carcinogenicity [2] | Carcinogenicity [3] | Protection from H2O2-induced cell death [4] |
| --- | --- | --- | --- | --- | --- | --- | --- | --- | --- | --- |
| O=C(NCCS(=O)(=O)c1ccc(C(F)(F)F)cn1)c1ccc(Cl)cc1 [GSK3787] | lose their capacity to protect cardiomyocytes from apoptosis | did not change MSC protective properties | lose their capacity to protect cardiomyocytes from apoptosis |  |  |  |  |  |  |  |
| Cc1cc(SCc2sc(-c3ccc(C(F)(F)F)cc3)nc2C)ccc1OCC(=O)O [GW501516] |  |  |  | 37.4 % of LV mass | 52.8 | 54.5 | 36.05 | caused cancer to develop rapidly in several organs | caused cancer to develop rapidly in several organs | protect the cardiomyoblast cell line H9c2 from H2O2-induced cell death |
